# Where a name gives a salt, the structure may show the parent alone.
# How the values were obtained:
# [1] = Oral bioavailability and biodistribution of pentamidine salts; conditions: mice; for Tissue Concentration Kidney / Tissue Concentration Liver / Tissue Concentration Lung / Tissue Concentration Pancreas: 24 hours after PO 200 mg/kg; for Tissue Concentration Kidney / Tissue Concentration Liver / Tissue Concentration Lung / Tissue Concentration Pancreas / AUCINF / Cl/F / Cmax / MRT / Tmax / t½: 200 mg/kg; for F* / AUCINF / Cl/F / Cmax / MRT / Tmax / t½: oral 200 mg/kg; for F*: based on the iv AUC at 5 mg/kg of 19.08; for AUCINF / Cl/F / Cmax / MRT / Tmax / t½: blood
# Description: In this experiment, HCl, isethionate and tosylate salts of pentamidine were administered orally to mice and their PK and tissue accumulations were compared.
# PK parameters for pentamidine salt following oral administration of 200 mg/kg in mice.
# Biodistribution of Pentamidine Salts in mice, 24 hours after PO administration of 200 mg/kg.
# [2] = system: GalN/LPS-induced liver injury; test: GalN/LPS fulminant liver injury survival study; format: in vivo; conditions: C57BL/6 mice; IP 30 minutes prior GalN/LPS; PENTAMIDINE 40 mpk, Decamidine 10 mpk
# Description: In this experiment, the 8-hour survival rate for C57BL/6 mice is evaluated when treated or not with two different aromatic diamidines (pentamidine isethionate(C5) and decamidine isethionate (C10)). Both compounds were administered intraperitoneally at doses close to their MTD 30 minutes prior a GalN/LPS-induced liver injury.
compound,measurement,setting,value
"N=C(N)c1ccc(OCCCCCOc2ccc(C(=N)N)cc2)cc1 [Tosylate salt, pentamidine tosylate]",Tissue Concentration Kidney,[1]; listed as Penta-Tos,1.9 µM
same,Tissue Concentration Liver,[1]; listed as Penta-Tos,4.1 µM
same,Tissue Concentration Lung,[1]; listed as Penta-Tos,0.5 µM
same,Tissue Concentration Pancreas,[1]; listed as Penta-Tos,0.5 µM
same,F*,[1],2.3
same,AUCINF,[1],17.8 µM·h
same,Cl/F,[1],440 mL/min/kg
same,Cmax,[1],430 nM
same,MRT,[1],86.0 h
same,Tmax,[1],6.67 h
same,t½,[1],54.9 h
"N=C(N)c1ccc(OCCCCCOc2ccc(C(=N)N)cc2)cc1 [HCl salt, pentamidine bis-HCl]",Tissue Concentration Kidney,"[1]; listed as Penta-HCL, bis-HCl",156.3 µM
same,Tissue Concentration Liver,"[1]; listed as Penta-HCL, bis-HCl",224.6 µM
same,Tissue Concentration Lung,"[1]; listed as Penta-HCL, bis-HCl",43.4 µM
same,Tissue Concentration Pancreas,"[1]; listed as Penta-HCL, bis-HCl",16.6 µM
same,F*,[1]; bis-HCl,20.7
same,AUCINF,[1]; bis-HCl,158.1 µM·h
same,Cl/F,[1]; bis-HCl,85 mL/min/kg
same,Cmax,[1]; bis-HCl,5240 nM
same,MRT,[1]; bis-HCl,136.0 h
same,Tmax,[1]; bis-HCl,2.67 h
same,t½,[1]; bis-HCl,90.8 h
"N=C(N)c1ccc(OCCCCCCCCCCOc2ccc(C(=N)N)cc2)cc1 [Decamidine, decamidine isethionate]",8-hour survival,[2],100%

# Source: patent US9375411B2, “Uses and methods for the treatment of liver diseases or conditions” (Verlyx Pharma Inc., priority 2012, dated 2016)
